# Assays:
# [1] = target: Antibody from Diazo-coupled Immunogen; assay: RIA cross-reactivity: competition with labeled physostigmine for antibody from diazo-coupled immunogen; format: binding, New Zealand white rabbits; conditions: 1:150, max 1000 ng tested
# Protocol: (§1) Antibodies to the physostigmine-BSA immunogen were produced by injecting male New Zealand white rabbits with immunogens formed by either method. Prior to injection, the immunogen was emulsified with an equal volume of complete Freund's adjuvant, purchased from Difco Laboratories of Detroit, Mich. The initial immunization consisted of 0.8 mg of protein injected intracutaneously in multiple dorsal sites of the rabbits. Booster injections containing 0.8 mg of immunogen and incomplete Freund's adjuvant were administered every two months for the next six months. Antisera was collected one week after each booster injection from the central ear vein. The blood was allowed to clot at room temperature and then centrifuged at 1500×g for 15 minutes. The separated serum was stored frozen at -20° C. until assayed for the presence of physostigmine antibody.
# In the assay procedure ^3 H-Physostigmine having specificity of 19.0 Ci/mmole and purchased from the Amersham Corp. of Arlington Heights, Ill., was used as tracer. The dilution of tracer (5000 dpm), antibody (1:150) and physostigmine standards (100-10,000 pg) were made using 0.01M phosphate buffer containing 150 mM sodium chloride with a pH of 7.4. […] Both standard and sample tubes were always analyzed in duplicate. The assay was carried out according to the protocol shown in Table 1 with the reagents were added to the assay tubes in the order shown.
# (§2) According to the protocol for the RIA of the present invention, after the addition of antisera, the contents of the tubes were mixed and incubated for 3 hours at 4° C. The antigen which bound to the antibody was separated by adding saturated ammonium sulfate and centrifuging at 2500×g for 15 minutes. After aspiration of the supernatant, the precipitate was washed one time with 50% saturated ammonium sulfate; then the mixture was centrifuged and the supernatent removed. The precipitate was dissolved in 1.0 ml of distilled water, and the solution was transferred to a scintillation vial containing 10.0 ml of acquasol 2.
# (§3) The radioactivity which was bound to the antibody was determined in counts per minute with a Beckman LS-3133P Liquid Scintillation Counter. […] The concentration of physostigmine is plotted on the horizontal axis, while the percent inhibition of binding radioactively labeled is plotted on the vertical axis. […] Concentrations of physostigmine in unknown samples were determined according to conventional calculations from the standard curve.
# (§4) Competition of the compounds with labeled physostigmine (5000 dpm) for antibody binding sites was determined arbitrarily at 50% inhibition of the physostigmine on the standard curve. Each compound was tested for cross-reactivity with the antibody. The maximum concentration of each compound tested was 1000 ng.
# [2] = target: Antibody from Mannich Immunogen; assay: RIA cross-reactivity: competition with labeled physostigmine for antibody from Mannich immunogen; format: binding, New Zealand white rabbits; conditions: 1:100, max 1000 ng tested
# Protocol: as §1
# In the assay procedure ^3 H-Physostigmine having specificity of 19.0 Ci/mmole and purchased from the Amersham Corp. of Arlington Heights, Ill., was used as tracer. […] Both standard and sample tubes were always analyzed in duplicate. The assay was carried out according to the protocol shown in Table 1 with the reagents were added to the assay tubes in the order shown.
# as §2, §3, §4
# [3] = cited from earlier work
smiles,measurement,setting,value
"CNC(=O)Oc1ccc2c(c1)[C@]1(C)CCN(C)[C@@H]1N2C [Physostigmine, physostigmine]",IC50 (50% inhibition of binding of 3H-physostigmine),[1],1.35 ng
same,IC50 (50% inhibition of binding of 3H-physostigmine),[2],1.35 ng
same,adverse muscarinic effects,[3]; certain patients,"nausea, vomiting, diarrhea, miosis, excessive salivation and sweating, abdominal cramps, bradycardia, bronchial secretion and bronchospasm"
same,toxic level relative to therapeutic level,[3]; clinical use,toxic at levels very close to those which produce therapeutic results
same,effect of substantial over administration,[3]; overdose,cholinergic crisis leading to death
same,other side effects,[3]; thrombophlebitis if administered intravenously,"generalized weakness, muscle cramps, fasciculation, hypotension, and, if administered intraveneously, thrombophlebitis"

# From patent US5252495A, “Immunoassay for physostigmine” (priority 1992, dated 1993)
